Read-outs that look alike come from different tables or passages of the source.
What was measured:
[1] = freeze fracture analysis; cited from earlier work
[2] = tested on: neonatal rats
Source text: Timed-pregnant female Wistar rats and C57/B16 mice were obtained from Charles River (St. Constant, Qc, Canada). All animal protocols were in accordance with Canadian Counsel of Animal Care guidelines and were approved by the Animal Care and Use Committee of the Hospital for Sick Children. Developmental profile: At fetal day 19 and 22 (term=23 days) the pregnant rat was anesthetized and the pups delivered by cesarean section, while postpartum rodents were removed from their mother directly before sacrifice. Dexamethasone treatment: Newborn Wistar rats were injected daily for 4 days with dexamethasone (Sabex, Boucherville, Quebec, Canada) diluted in isotonic saline starting at postnatal day 1 according to previously described protocols (17). Hyperoxia exposure: The oxygen treatment was performed by housing the rat pups with their mother in chambers containing either 21% or 60% oxygen, starting at day 1 until day of lavage (i.e. postnatal day 4, 7, 10 or 14) (18).
After sacrificing the animals, a needle (blunted tip) was inserted through a tracheostomy and the lungs were lavaged with a buffer composed of phosphate-buffered saline augmented with 0.05 mg/ml of 70 kDa dextran-FITC [Molecular probes, Burlington, ON, Canada]. The inert fluorescent marker was included to determine lavage recovery (see FIG. 4e).
BALF samples were spiked with 1 μg of deuterated dipalmitoyl-PC (16:0/16:0PC) (Avanti polar lipids, Alabaster Ala., USA) as an internal standard, and then extracted (19). Lipids were analyzed using an API4000 mass spectrometer [MDS SCIEX, Concord, Ontario, Canada) (20).
To determine the nature of this relationship, BALF samples were examined from two rat models of diminished alveolarization. The two models employed were postnatal exposure to either dexamethasone or 60% oxygen. Postnatal administration of dexamethasone to rats has been described to result in a reduced alveolarization (17, 39-41). In the present study, a high dose, short-term treatment with dexamethasone was used to induce reduced alveolarization in the animal.
Neonatal hyperoxia of mice and rats may also be used to induce diminished alveolarization (18, 42-44).

[3] = tested on: neonatal rats; conditions: treated rats; day 10 control rats 9.0±0.4 microns
Experimental: BALF samples, containing 50 nM of PC, were extracted and lipids were dried under nitrogen. Lipid samples were then reconstituted in 1 ml of saline at 37° C. followed by bath sonication. Following one freeze-thaw cycle the vesicle size was determined by dynamic light scattering (21) using a Malvern Mastersizer X (Malvern Instruments Ltd., Worcestershire, United Kingdom).
To even further characterize this relationship, light scattering analysis was performed on liposomes formed from total lipids extracted from BALF.

[4] = tested on: newborn Wistar rats; conditions: high dose, short-term dexamethasone, age of 14 days; cited from earlier work

| Compound | liposome radius compared to palmitoylmyristoyl-PC (16:0/14:0PC) liposomes [1] | total PC in BALF ([2]; 60% oxygen from day 1, postnatal day 10) | total PC in BALF ([2]; 60% oxygen from day 1, postnatal day 14) | palmitoylmyristoyl-PC (16:0/14:0PC) in BALF ([2]; after 14 days of 60% oxygen exposure, only PC species reduced) | dipalmitoyl-PC (16:0/16:0PC) content in BALF ([2]; rats exposed to 60% oxygen) | palmitoylmyristoyl-PC (16:0/14:0PC) content in BALF ([2]; rats exposed to 60% oxygen) | palmitoylpalmitoleoyl-PC (16:0/16:1PC) content in BALF ([2]; rats exposed to 60% oxygen) | average particle size of liposomes formed from BALF lipids [3] | parenchymal complexity / lung alveoli compared to controls [4] |
| --- | --- | --- | --- | --- | --- | --- | --- | --- | --- |
| CCCCCCCCCCCCCCCC(=O)OC[C@H](COP(=O)([O-])OCC[N+](C)(C)C)OC(=O)CCCCCCCCCCCCCCC [16:0/16:0, Dipalmitoyl Phosphatidylcholine] | three-fold greater radius | – | – | – | – | – | – | – | – |
| O=O [60% oxygen, oxygen] | – | significant reduction | no longer significantly different | significantly reduced | reduced | reduced | reduced | 12.6±0.6 microns | – |
| C[C@@H]1C[C@H]2[C@@H]3CCC4=CC(=O)C=C[C@]4(C)[C@@]3(F)[C@@H](O)C[C@]2(C)[C@@]1(O)C(=O)CO [dexamethasone, reference compound] | – | – | – | – | – | – | – | 13.2±0.7 microns | significant decrease in parenchymal complexity |

— patent US20070010429A1, “Phospholipid formulations and uses thereof in lung disease detection and treatment” (The Hospital For Sick Children, priority 2005, published 2007)
